≈ marks a conversion by molar mass, not a printed value.
Key:
Staphylococcus aureus [1] = test: Bactericidal activity against methicillin-resistant Staphylococcus aureus MRG3 by broth microdilution method
[2] = Cmax in body fluid of Wistar rat infected with methicillin-resistant Staphylococcus aureus MRG3 at 50 mg/kg, sc measured on day 4 postdose; assay type: ADME, organism-based; set-up: dose 50 mg/kg, route subcutaneous
[3] = Cmin in body fluid of Wistar rat infected with methicillin-resistant Staphylococcus aureus MRG3 at 50 mg/kg, sc measured on day 4 postdose; assay type: ADME, organism-based; set-up: dose 50 mg/kg, route subcutaneous; conditions: in vivo
Staphylococcus aureus [4] = test: Antibacterial activity against methicillin-resistant Staphylococcus aureus MRG3 infected in Wistar rat assessed as bacterial load in body fluid at 50 mg/kg, sc after 1 day; assay type: functional; conditions: route subcutaneous
Staphylococcus aureus [5] = test: Antibacterial activity against methicillin-resistant Staphylococcus aureus MRG3 infected in Wistar rat assessed as decrease in bacterial load in body fluid at 50 mg/kg, sc after 8 days; assay type: functional; conditions: route subcutaneous
Staphylococcus aureus [6] = test: Antibacterial activity against methicillin-resistant Staphylococcus aureus MRG3 by broth microdilution method; assay type: functional
[7] = Drug level in body fluid of Wistar rat infected with methicillin-resistant Staphylococcus aureus MRG3 at 7 mg/kg, sc BID measured on day 4 postdose; assay type: ADME, organism-based; set-up: dose 7 mg/kg, route subcutaneous; conditions: in vivo
[8] = Drug level in body fluid of Wistar rat infected with methicillin-resistant Staphylococcus aureus MRG3 at 7 mg/kg, sc BID measured on day 7 postdose; assay type: ADME, organism-based; set-up: dose 7 mg/kg, route subcutaneous; conditions: in vivo
Plasma = test: Drug level in plasma of Wistar rat infected with methicillin-resistant Staphylococcus aureus MRG3 at 7 mg/kg, sc BID measured on day 4 postdose; assay type: ADME, organism-based; set-up: dose 7 mg/kg, route subcutaneous; conditions: in vivo
Staphylococcus aureus [9] = test: Antibacterial activity against methicillin-resistant Staphylococcus aureus MRG3 assessed as log decrease in bacterial count at 1 to 4 ug/ml by broth microdilution method; assay type: functional
Staphylococcus aureus [10] = test: Antibacterial activity against methicillin-resistant Staphylococcus aureus MRG3 infected in Wistar rat assessed as bacterial load in body fluid at 7 mg/kg, sc BID after 1 day; assay type: functional; conditions: route subcutaneous
Staphylococcus aureus [11] = test: Antibacterial activity against methicillin-resistant Staphylococcus aureus MRG3 infected in Wistar rat assessed as decrease in bacterial load in body fluid at 7 mg/kg, sc BID after 8 days; assay type: functional; conditions: route subcutaneous

| Structure (SMILES) | MBC (Staphylococcus aureus [1]) [µg/mL] | Cmax [2] [ng/mL] | Cmin [3] [µg/mL] | log10CFU/ml (Staphylococcus aureus [4]) | log10CFU/ml (Staphylococcus aureus [5]) | MIC (Staphylococcus aureus [6]) [µg/mL] | Drug uptake [7] [µg/mL] | Drug uptake [8] [µg/mL] | Drug uptake (Plasma) [µg/mL] | log10CFU/ml (Staphylococcus aureus [9]) | log10CFU/ml (Staphylococcus aureus [10]) | log10CFU/ml (Staphylococcus aureus [11]) |
| --- | --- | --- | --- | --- | --- | --- | --- | --- | --- | --- | --- | --- |
| CN[C@H](CC(C)C)C(=O)N[C@H]1C(=O)N[C@@H](CC(N)=O)C(=O)N[C@H]2C(=O)N[C@H]3C(=O)N[C@H](C(=O)N[C@H](C(=O)O)c4cc(O)cc(O)c4-c4cc3ccc4O)[C@H](O)c3ccc(c(Cl)c3)Oc3cc2cc(c3O[C@@H]2O[C@H](CO)[C@@H](O)[C@H](O)[C@H]2O[C@H]2C[C@](C)(N)[C@H](O)[C@H](C)O2)Oc2ccc(cc2Cl)[C@H]1O [VANCOMYCIN] | 2 (≈ 1.38 µM) | 12000 | 2 | 6.7 | 0.76 |  |  |  |  |  |  |  |
| CN(C)c1cc(NC(=O)CNC(C)(C)C)c(O)c2c1C[C@H]1C[C@H]3[C@H](N(C)C)C(O)=C(C(N)=O)C(=O)[C@@]3(O)C(O)=C1C2=O [TIGECYCLINE] |  |  |  |  |  | 0.5 (≈ 0.854 µM) | 0.39 | 0.33 | 1.87 | 2 | 6.92 | 0.62 |
